Columns and labels:
[1] = test system: arterial vulnerable plaques; assay: In vivo CT tracing of arterial vulnerable plaques, iodixanol; parameters: species or system mice; details: iodixanol 0.66 mg/kg, tail vein, CT 72 hours after administration; FIG. 16
Description: (1) A commercially available iodixanol bulk drug was used, and the cerasome delivery system HA-CL1@I loaded with a CT tracer, the cerasome delivery system HA-CL1@I+S loaded with a tracer and a CD44 activator, and the non-targeting cerasome delivery system CL1@I loaded with a tracer (as a comparative example) were prepared by the method described in the above Example 2.
(2) A mouse model of atherosclerotic vulnerable plaque was constructed according to the method described in Example 6 above.
(3) The model mice were fed with a high-fat diet (same as in Example 6) for 16 weeks. 30 model mice were randomly divided into the blank group (6 mice), the iodixanol group (6 mice, given the commercially available iodixanol bulk drug, and the dosage of iodixanol was 0.66 mg/kg body weight), the CL1@I group (6 mice, given CL1@I, and the dosage of iodixanol was 0.66 mg/kg body weight), the HA-CL1@I group (6 mice, given HA-CL1@I, and the dosage of iodixanol was 0.66 mg/kg body weight), and HA-CL1@I+S group (6 mice, given HA-CL1@I+S, the dosage of iodixanol was 0.66 mg/kg body weight, and the dosage of CD44 activator-LPS was about 0.023 mg/kg body weight). […]

[2] = test system: arterial vulnerable plaques; assay: In vivo therapeutic effect on arterial vulnerable plaques (carotid MRI, percentage of plaque progression); parameters: species or system ApoE−/− mice; details: 5 mg rosuvastatin per kg, once every other day, 5 treatments; FIG. 14
[3] = oral, clinical practice; cited from earlier work
[4] = target: T1, CD44 on the surface of macrophages inside arterial vulnerable plaques (Mus musculus, UniProt P15379); assay: Binding force integration of FL-ligand/antibody on macrophages (flow cytometry MFI); parameters: species or system mice; details: aminofluorescein-labeled ligand/antibody 10 mg/ml, 30 minutes, 37° C.
T1 construct: from tissue; host or cells: macrophages from inside arterial vulnerable plaques of atherosclerosis model mice
T1 sequence (P15379 23-778): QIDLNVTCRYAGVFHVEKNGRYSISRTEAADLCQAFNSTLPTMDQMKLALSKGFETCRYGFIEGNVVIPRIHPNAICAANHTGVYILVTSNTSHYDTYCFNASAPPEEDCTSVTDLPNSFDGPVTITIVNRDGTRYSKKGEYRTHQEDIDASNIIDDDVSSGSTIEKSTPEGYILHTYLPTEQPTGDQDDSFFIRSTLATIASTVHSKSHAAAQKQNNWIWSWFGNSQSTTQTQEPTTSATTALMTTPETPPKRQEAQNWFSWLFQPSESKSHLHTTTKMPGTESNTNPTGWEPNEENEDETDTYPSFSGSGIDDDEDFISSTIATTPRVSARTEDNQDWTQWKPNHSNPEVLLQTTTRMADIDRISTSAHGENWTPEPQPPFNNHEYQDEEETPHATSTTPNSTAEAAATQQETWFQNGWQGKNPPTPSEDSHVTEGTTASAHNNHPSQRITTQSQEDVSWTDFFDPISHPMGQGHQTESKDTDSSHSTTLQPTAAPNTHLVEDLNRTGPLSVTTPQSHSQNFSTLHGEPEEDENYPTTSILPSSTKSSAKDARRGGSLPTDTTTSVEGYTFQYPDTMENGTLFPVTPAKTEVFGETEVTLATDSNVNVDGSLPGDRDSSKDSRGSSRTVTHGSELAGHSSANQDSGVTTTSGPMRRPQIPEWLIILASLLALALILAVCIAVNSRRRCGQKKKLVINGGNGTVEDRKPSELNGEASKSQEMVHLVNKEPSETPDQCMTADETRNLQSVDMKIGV
Description: Intraperitoneal macrophages and macrophages inside arterial vulnerable plaques of model mice were taken, and hyaluronic acid labeled with aminofluorescein at a concentration of 10 mg/ml (represented by “FL-HA”) was added, the sample was cultured in DMEM (containing calf serum with a volume fraction of 10%, 100 U/ml penicillin, 100 U/ml streptomycin) at 37° C., in 5% CO2 incubator.
Intraperitoneal macrophages and macrophages inside arterial vulnerable plaques of model mice were taken, and the ligand/antibody labeled with aminofluorescein at a concentration of 10 mg/ml was added, the sample was cultured in DMEM (containing calf serum with a volume fraction of 10%, 100 U/ml penicillin, 100 U/ml streptomycin) at 37° C., in 5% CO2 incubator.

[5] = target: T2, CD44 on the surface of endothelial cells at arterial vulnerable plaques (Mus musculus, UniProt P15379); assay: Binding force integration of FL-ligand/antibody on endothelial cells (flow cytometry MFI); parameters: species or system mice; details: aminofluorescein-labeled ligand/antibody 10 mg/ml, 30 minutes, 37° C.
T2 construct: from tissue; host or cells: endothelial cells from arterial vulnerable plaques of atherosclerosis model mice
T2 sequence (P15379 23-778): T1 sequence (P15379 23-778)
Description: Endothelial cells at normal arterial vessel walls and endothelial cells at arterial vulnerable plaques of model mice were taken, and hyaluronic acid labeled with aminofluorescein at a concentration of 10 mg/ml (represented by “FL-HA”) was added, and the sample was cultured in Dulberic modified Eagle's medium (DMEM) (containing calf serum with a volume fraction of 10%, 100 U/ml penicillin, 100 U/ml streptomycin) at 37° C., in 5% CO2 incubator. After 30 minutes, the mean fluorescence intensity (MFI) was determined by flow cytometry (CytoFLEX, Beckman Coulter, U.S.A.), and the binding force integration of FL-HA on the surface of both cells was calculated (the binding force of endothelial cells of normal arterial vessel walls is set to 1).
Endothelial cells at normal arterial vessel walls and endothelial cells at arterial vulnerable plaques of model mice were taken, and the ligand/antibody labeled with aminofluorescein at a concentration of 10 mg/ml was added, the sample was cultured in Dulberic modified Eagle's medium (DMEM) (containing calf serum with a volume fraction of 10%, 100 U/ml penicillin, 100 U/ml streptomycin) at 37° C., in 5% CO2 incubator. After 30 minutes, the mean fluorescence intensity (MFI) was determined by flow cytometry (CytoFLEX, Beckman Coulter, U.S.A.), and the binding force integration of FL-ligand/antibody on the surface of both cells was calculated (the binding force of CD44 of endothelial cells of normal arterial vessel walls to ligand/antibody is set to 1).

binding force integration, macrophages inside vulnerable plaques versus macrophages outside the plaque (set to 1) [4] | binding force integration, endothelial cells at vulnerable plaques versus endothelial cells of normal arterial vessel walls (set to 1) [5] | Compound | tracing effect on arterial vulnerable plaques (CT) [1] | therapeutic effect on arterial vulnerable plaques (percentage of plaque progression) [2] | bioavailability when administered orally [3]
35 times | 18 times | fibronectin | – | – | –
33 times | 17 times | osteopontin: natural ligand for CD44 | – | – | –

Continued, compound first:

Compound | binding force integration, macrophages inside vulnerable plaques versus macrophages outside the plaque (set to 1) [4] | binding force integration, endothelial cells at vulnerable plaques versus endothelial cells of normal arterial vessel walls (set to 1) [5] | tracing effect on arterial vulnerable plaques (CT) [1] | therapeutic effect on arterial vulnerable plaques (percentage of plaque progression) [2] | bioavailability when administered orally [3]
CC(=O)N(CC(O)CN(C(C)=O)c1c(I)c(C(=O)NCC(O)CO)c(I)c(C(=O)NCC(O)CO)c1I)c1c(I)c(C(=O)NCC(O)CO)c(I)c(C(=O)NCC(O)CO)c1I (stereo not shown) [iodixanol] | – | – | does not show any tracing effect | – | –
CC(C)c1nc(N(C)S(C)(=O)=O)nc(-c2ccc(F)cc2)c1/C=C/[C@@H](O)C[C@@H](O)CC(=O)O [rosuvastatin] | – | – | – | shows a certain therapeutic effect, but it could not prevent the continued growth of vulnerable plaques | about 20%
collagen | 38 times | 21 times | – | – | –
hyaluronic acid [HA, reference compound] | approximately 40 times | approximately 24 times | – | – | –
laminin | 37 times | 16 times | – | – | –

Reference: US11737977B2, “Cerasome delivery system for targeting activated CD44 molecule, preparation method and use thereof” (Beijing Inno Medicine Co., Ltd., priority 2017, dated 2023)
